Assays:
[1] = test system: THP-1 cells; assay: Human monocytic THP-1 cell differentiation assay for soluble proteins (THP-1 soluble protein assay); type: cell-based; settings: LPS-stimulated THP-1 cells, soluble protein not given
Source text: Mitogenic stimulation of THP-1 cells cause differentiation into macrophage like cells with concomitant secretion of tumor necrosis factor (TNF-α) and TNF receptor (TNF-R p75/80 and TNF-R p55160) and Interleukin-8 (IL-8), among other proteins. In addition, non-stimulated THP-1 cells shed both the p75/80 and the p55/60 receptors over time. The release of membrane bound TNF-α and possibly TNF-R p75/80 and TNF-R p55/60, but not IL-8, is mediated by an enzyme called TNF-α converting enzyme or TACE.
THP-1 cells (from ATCC) are a human monocytic cell line which were obtained from the peripheral blood of a person with acute monocytic leukemia. They can be grown in culture and differentiated into macrophage like cells by stimulation with mitogens.
Each vial of cells are cultured for about two weeks prior to being used for an assay and then are used for only 4 to 6 weeks to screen compounds.
Cell exposure to DMSO was limited to 0.1% final concentration. […] Compounds can be evaluated for their effect on basal (non-stimulated) shedding of the receptors by replacing the LPS with […] of THP-1 media.
Plates are placed into an incubator set at 5% CO2 and at 37° C. After 4 hours of incubation, […] of tissue culture supernatant (TCS) is removed for use in an TNF-α ELISA. Following 24 hours of incubation, […] of TCS is removed and used for analysis in TNF-R p75/80, TNF-R p55160 and IL-8 ELISAs.
In addition, at the 24 hours timepoint, and the cells for each treatment group are collected by resuspension in 500 μl/well of THP-1 media and transferred into a FACS tube. […] The samples are run on a Becton Dickinson FaxCaliber FLOW cytometry machine and the amount of dye taken up by each cell is measured in the high red wavelength (FL3). Only cells with compromised membranes (dead or dying) can take up PI. The percent of live cells is calculated by the number of cells not stained with PI, divided by the total number of cells in the sample. The viability values calculated for the drug treated groups were compared to the viability value calculated for the vehicle treated mitogen stimulated group (“vehicle positive control”) to determine the “percent change from control”. This “percent change from control” value is an indicator of drug toxicity.
The quantity of soluble TNF-α, TNF-R p75/80 and TNF-R p55160 and IL-8 in the TCS of the THP-1 cell cultures are obtained with commercially available ELISAs from R&D Systems, by extrapolation from a standard curve generated with kit standards. The number of cells that either take up or exclude PI are measured by the FLOW cytometry machine and visualized by histograms using commercially available Cytologic software for each treatment group including all controls.
Biological variability in the magnitude of the response of THP-1 cell cultures requires that experiments be compared on the basis of percent change from “vehicle positive control” for each drug concentration. Percent change in each soluble protein evaluated from the “vehicle positive control” was calculated for each compound concentration with the following formula: [formula]
For the soluble protein (TNF-α, p75/80, p55/60, IL-8) studies under stimulated conditions, the mean pg/ml of duplicate wells were determined and the results expressed as percent change from “vehicle positive control”. For the soluble protein (p75/80 and p55/60 receptors) studies under non-stimulated conditions, the mean pg/ml of duplicate wells were determined and the results expressed as percent change from “vehicle positive control” utilizing the following formula: [formula]
IC50 values for each compound are calculated by non-linear regression analysis using customized software utilizing the JUMP statistical package.
For the cell viability studies, the viabilities (PI exclusion) of pooled duplicate wells were determined and the results expressed as % change from “vehicle positive control”.

[2] = biological target: MMP-13 (Homo sapiens, UniProt P45452); assay: MMP-13 inhibition (thiopeptide or fluorescent peptide substrate); type: biochemical; settings: read-out: MMP13 IC50
Method: The enzyme activity is measured by the rate of the color increase. The thiopeptide substrate is made up fresh as a 20 mM stock in 100% DMSO and the DTNB is dissolved in 100% DMSO as a 100 mM stock and stored in the dark at room temperature. Both the substrate and DTNB are diluted together to 1 mM with substrate buffer (50 mM HEPES pH 7.5, 5 mM CaCl2) before use. The stock of enzyme is diluted with buffer (50 mM HEPES, pH 7.5, 5 mM CaCl2, 0.02% Brij) to the desired final concentration.
Alternatively, a fluorescent peptide substrate is used. In this test procedure, the peptide substrate contains a fluorescent group and a quenching group. Upon cleavage of the substrate by an MMP, the fluorescence that is generated is quantitated on the fluorescence plate reader. The assay is run in HCBC assay buffer (50 mM HEPES, pH 7.0, 5 mM Ca^+2, 0.02% Brij, 0.5% Cysteine), with human recombinant MMP-1, MMP-9, or MMP-13. The substrate is dissolved in methanol and stored frozen in 1 mM aliquots. For the assay, substrate and enzymes are diluted in HCBC buffer to the desired concentrations. Compounds are added to the 96 well plate containing enzyme and the reaction is started by the addition of substrate.
For either the thiopeptide or fluorescent peptide test procedures, the slope of the line is calculated and represents the reaction rate. […] The mean (x±sem) of the control rate is calculated and compared for statistical significance (p<0.05) with drug-treated rates using Dunnett's multiple comparison test.

| SMILES | IC50 [2] | inhibition at 3 µM [1] |
| --- | --- | --- |
| CC#CCOc1ccc(S(=O)(=O)C2(C(=O)NO)CCN(Cc3ccc(Br)cc3)CC2)cc1 [Example 1, 1-(4-Bromo-benzyl)-4-(4-but-2-ynyxoy-benzenesulfonyl)-piperdine-4-carboxylic acid hydroxyamide] | 155 nM | 46% |
| CC#CCOc1ccc(S(=O)(=O)C2(C(=O)NO)CCN(Cc3ccc(OC)cc3)CC2)cc1 [Example 2, 4-(4-But-2-ynyloxy-benzenesulfonyl)-1-(4-methoxy-benzyl)-piperdine-4-carboxylic acid hydroxyamide] | 39.6 nM | 68% |
| CC#CCOc1ccc(S(=O)(=O)C2(C(=O)NO)CCN(Cc3ccc(Cl)cc3)CC2)cc1 [Example 3, 4-(4-But-2-ynyloxy-benzenesulfonyl)-1-(4-chloro-benzyl)-piperdine-4-carboxylic acid hydroxyamide] | 90 nM | 34% |
| CC#CCOc1ccc(S(=O)(=O)C2(C(=O)NO)CCN(Cc3ccccc3)CC2)cc1 [Example 4, 1-Benzyl-4-(4-but-2-ynyloxy-benzenesulfonyl)-piperdine-4-carboxylic acid hydroxyamide] | 47.3 nM | 25% |
| CCC#CCOc1ccc(S(=O)(=O)C2(C(=O)NO)CCN(Cc3ccc(Br)cc3)CC2)cc1 [Example 5, 1-(4-Bromo-benzyl)-4-(4-pent-2-ynyloxy-benzenesulfonyl)-piperdine-4-carboxylic acid hydroxyamide] | 180 nM | 30% |
| CC#CCOc1ccc(S(=O)(=O)C2(C(=O)NO)CCN(Cc3ccc(F)cc3)CC2)cc1 [Example 7, 4-(4-But-2-ynyloxy-benzenesulfonyl)-1-(4-fluoro-benzyl)-piperidine-4-carboxylic acid hydroxyamide] | 59.4 nM | 21% |
| CC#CCOc1ccc(S(=O)(=O)C2(C(=O)NO)CCN(Cc3ccc(C#N)cc3)CC2)cc1 [Example 8, 4-(4-But-2-ynyloxy-benzenesulfonyl)-1-(4-cyano-benzyl)-piperidine-4-carboxylic acid hydroxyamide] | 72 nM | 21% |
| CC#CCOc1ccc(S(=O)(=O)C2(C(=O)NO)CCN(Cc3ccc(C)cc3)CC2)cc1 [Example 9, 4-(4-But-2-ynyloxy-benzenesulfonyl)-1-(4-methyl-benzyl)-piperidine-4-carboxylic acid hydroxamide] | 35.2 nM | 12% |
| C#CCOc1ccc(S(=O)(=O)C2(C(=O)NO)CCN(Cc3ccc(Br)cc3)CC2)cc1 [Example 11, 1-(4-Bromo-benzyl)-4-(4-prop-2-ynyloxy-benzenesulfonyl)-piperdine-4-carboxylic acid hydroxyamide] | 3.1 nM | 7% |
| O=C(NO)C1(S(=O)(=O)c2ccc(OCC#CCN3CCCCC3)cc2)CCN(Cc2ccc(Br)cc2)CC1 [Example 12, 1-(4-bromo-benzyl)-4-[4-(4-piperidin-1-yl-but-2-ynyloxy)-benzenesulfonyl]-piperidine-4-carboxylic acid hydroxyamide] | 1500 nM | 58% |
| CC#CCOc1ccc(S(=O)(=O)C2(C(=O)NO)CCOCC2)cc1 [Example 20, 4-{[4-(2-butynyloxy)phenyl]sulfonyl}-N-hydroxytetrahydro-2H-pyran-4-carboxamide] | 121 nM | 47% |
| CC#CCOc1cccc(S(=O)(=O)C2(C(=O)NO)CCN(Cc3ccccc3)CC2)c1 [Example 21, 1-benzyl-4-{[3-(2-butynyloxy)phenyl]sulfonyl}-N-hydroxy-4-piperdine carboxamide] | 858 nM | 6% |
| CC#CCOc1ccc(S(=O)(=O)C2(C(=O)NO)CCN(C(C)C)CC2)cc1 [Example 22, 4-{[4-(2-butynyloxy)phenyl]sulfonyl}-N-hydroxy-1-isopropyl-4-piperidine carboxamide] | 1080 nM | 5% |
| CC#CCOc1ccc(S(=O)(=O)C2(C(=O)NO)CCN(Cc3cccnc3)CC2)cc1 [Example 23, 4-{[4-(2-butynyloxy)phenyl]sulfonyl}-N-hydroxy-1-(3-pyridinylmethyl)-4-piperidine carboxamide] | 64.4 nM | 62% |
| CC#CCOc1ccc(S(=O)(=O)C2(C(=O)NO)CCCN(CC)C2)cc1 (centres unmarked) [Example 24, 3-{[4-(2-Butynyloxy)phenyl]sulfonyl}-1-ethyl-N-hydroxy-3-piperidinecarboxamide] | 463 nM | 41% |

More lines, main results first:

| IC50 [2] | SMILES | inhibition at 3 µM [1] |
| --- | --- | --- |
| 1180 nM | CC#CCOc1ccc(S(=O)(=O)C2(C(=O)NO)CCCN(Cc3ccc(Cl)cc3)C2)cc1 (centres unmarked) [Example 25, 3-{[4-(2-butynyloxy)phenyl]sulfonyl}-1-(4-chlorobenzyl)-N-hydroxy-3-piperidinecarboxamide] | 3% |
| 22.1 nM | CC#CCOc1ccc(S(=O)(=O)C2(C(=O)NO)CCN(Cc3ccc(OCCN4CCCCC4)cc3)CC2)cc1 [Example 26, 4-{[4-(2-Butynyloxy)phenyl]sulfonyl}-1-[4-(2-piperidin-1-yl-ethoxy)-benzyl]-piperidine-4-carboxylic acid hydroxyamide] | 63% |
| 426 nM | CC#CCOc1ccc(S(=O)(=O)C2(C(=O)NO)CCN(C(CC)CC)CC2)cc1 [Example 27, 4-{[4-(2-Butynyloxy)phenyl]sulfonyl}-1-(3-pentanyl)-piperidine-4-carboxylic acid hydroxyamide] | 13% |
| 5.3 nM | C#CCOc1ccc(S(=O)(=O)C2(C(=O)NO)CCN(Cc3ccc(OC)cc3)CC2)cc1 [Example 28, 1-(4-Methoxy-benzyl)-4-(4-prop-2-ynyloxy-benzenesulfonyl)-piperidine-4-carboxylic acid hydroxyamide] | 13% |
| 4.7 nM | C#CCOc1ccc(S(=O)(=O)C2(C(=O)NO)CCN(Cc3ccc(Cl)cc3)CC2)cc1 [Example 29, 1-(4-Chlorobenzyl)-4-(4-prop-2-ynyloxy-benzenesulfonyl)-piperidine-4-carboxylic acid hydroxyamide] | 13% |
| 2910 nM | CC#CCOc1ccc(SCC2(C(=O)NO)CCN(C(=O)OC(C)(C)C)CC2)cc1 [Example 30, tert-butyl-4-({[4-(2-butynyloxy)phenyl]sulfanyl}methyl)-4-[(hydroxyamino)-carbonyl]-1-piperidinecarboxylate] | 0% |
| > 10000 nM | CC#CCOc1ccc(SCC2(C(=O)NO)CCNCC2)cc1 [Example 31, 4-({[4-(But-2-ynyloxy)phenyl]thio}methyl)-N-hydroxypiperidine-4-carboxamide] | 8% |
